According to patent publication US8530381B2, “Active compound combinations” (Bayer CropScience AG, priority 2009, dated 2013):

Legend:
Pyrenophora teres = assay: Pyrenophora teres-test (barley)/preventive; format: in vivo; conditions: preventive spray, evaluated 8 days after inoculation
Experimental: (§1) Here, the efficacy is determined in %. 0% means an efficacy which corresponds to that of the control, whereas an efficacy of 100% means that no infection is observed.
(§2) If the actual fungicidal action exceeds the calculated value, the action of the combination is superadditive, i.e. a synergistic effect is present. In this case, the actually observed efficacy must exceed the value calculated using the above formula for the expected efficacy (E).
Pyrenophora teres-Test (Barley)/Preventive
(§3) Solvent: 49 parts by weight of n,n-dimethylacetamid
(§4) Emulsifier: 1 part by weight of alkylaryl polyglycol ether
(§5) To produce a suitable preparation of active compound, 1 part by weight of active compound or active compound combination is mixed with the stated amounts of solvent and emulsifier, and the concentrate is diluted with water to the desired concentration.
(§6) To test for preventive activity, young plants are sprayed with the preparation of active compound or active compound combination at the stated rate of application.
After the spray coating has been dried, the plants are sprayed with a spore suspension of Pyrenophora teres. The plants remain for 48 hours in an incubation cabinet at approximately 20° C. and a relative atmospheric humidity of approximately 100%. […]
The test is evaluated 8 days after the inoculation. […]

[1] = system: Blumeria graminis f.sp. hordei; assay: Blumeria-test (barley)/preventive; format: in vivo; conditions: preventive spray, application rate 62,5 g/ha, evaluated 7 days after inoculation
Experimental: as §1, §2
Blumeria Test (Barley)/Preventive
as §3, §4, §5, §6
After the spray coating has been dried, the plants are dusted with spores of Blumeria graminis f.sp. hordei.
The plants are placed in the greenhouse at a temperature of approximately 18° C. and a relative atmospheric humidity of approximately 80% to promote the development of mildew pustules.
The test is evaluated 7 days after the inoculation. 0% means an efficacy which corresponds to that of the control, while an efficacy of 100% means that no disease is observed.

Row | SMILES | Efficacy in % found (Pyrenophora teres; application rate 125 g/ha) | Efficacy in % found [1] | Efficacy in % found (Pyrenophora teres; application rate 62,5 g/ha)
1 | OC(Cc1ccccc1Cl)(Cn1nc[nH]c1=S)C1(Cl)CC1 (centres unmarked) [1.41, prothioconazole] | 70% |  | 
2 | Cn1cc(C(=O)Nc2ccc(F)cc2-c2ccc(Cl)c(Cl)c2)c(C(F)F)n1 [2.2, bixafen] |  | 10% | 
3 | CO/N=C(/C(=O)OC)c1ccccc1CO/N=C(\C)c1cccc(C(F)(F)F)c1 [3.17, trifloxystrobin] |  | 80% | 
4 | CCN(C)/C=N/c1cc(C)c(Oc2nc(Cc3ccc(Cl)cc3)ns2)cc1C [I-a] |  | 40% | 40%
